Measurements: ChEMBL document CHEMBL4831510, “Novel cannabidiol-carbamate hybrids as selective BuChE inhibitors: Docking-based fragment reassembly for the development of potential therapeutic agents against Alzheimer's disease” (Eur J Med Chem, 2021)
Calls of active or inactive are those of the source. The rule behind the calls is not given here.

How the values were obtained:
[1] = Antioxidant activity assessed as DPPH radical scavenging activity at 100 uM incubated for 2 hrs by microplate reader method; type: functional
Acetylcholinesterase [2] = molecular target: Acetylcholinesterase (Electrophorus electricus, UniProt O42275); test: Inhibition of electric eel AChE using acetylthiocholine iodide as substrate preincubated with enzyme for 20 mins followed by substrate addition and measured after 20 mins by Ellman's method
Chain of Acetylcholinesterase (Electrophorus electricus, UniProt O42275) (O42275 whole entry): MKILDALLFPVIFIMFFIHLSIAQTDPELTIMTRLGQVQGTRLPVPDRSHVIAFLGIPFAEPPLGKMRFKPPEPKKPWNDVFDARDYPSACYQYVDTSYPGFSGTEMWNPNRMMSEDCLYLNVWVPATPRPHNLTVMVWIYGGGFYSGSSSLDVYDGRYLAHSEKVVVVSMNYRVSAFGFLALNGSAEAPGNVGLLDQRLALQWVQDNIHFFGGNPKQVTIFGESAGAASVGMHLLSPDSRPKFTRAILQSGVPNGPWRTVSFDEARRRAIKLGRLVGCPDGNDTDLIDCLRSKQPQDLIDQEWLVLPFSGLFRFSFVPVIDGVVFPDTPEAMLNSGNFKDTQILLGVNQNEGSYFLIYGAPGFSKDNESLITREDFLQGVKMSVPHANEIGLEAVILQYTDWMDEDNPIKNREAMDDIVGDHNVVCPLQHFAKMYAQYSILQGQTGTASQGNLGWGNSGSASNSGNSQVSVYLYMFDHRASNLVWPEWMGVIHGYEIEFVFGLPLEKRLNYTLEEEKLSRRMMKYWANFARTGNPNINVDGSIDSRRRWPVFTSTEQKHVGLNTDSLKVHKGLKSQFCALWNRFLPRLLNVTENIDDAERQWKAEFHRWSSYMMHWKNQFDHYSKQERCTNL

Cholinesterase [3] = molecular target: T1, Cholinesterase (Equus caballus, UniProt P81908)
T1 sequence (P81908 whole entry): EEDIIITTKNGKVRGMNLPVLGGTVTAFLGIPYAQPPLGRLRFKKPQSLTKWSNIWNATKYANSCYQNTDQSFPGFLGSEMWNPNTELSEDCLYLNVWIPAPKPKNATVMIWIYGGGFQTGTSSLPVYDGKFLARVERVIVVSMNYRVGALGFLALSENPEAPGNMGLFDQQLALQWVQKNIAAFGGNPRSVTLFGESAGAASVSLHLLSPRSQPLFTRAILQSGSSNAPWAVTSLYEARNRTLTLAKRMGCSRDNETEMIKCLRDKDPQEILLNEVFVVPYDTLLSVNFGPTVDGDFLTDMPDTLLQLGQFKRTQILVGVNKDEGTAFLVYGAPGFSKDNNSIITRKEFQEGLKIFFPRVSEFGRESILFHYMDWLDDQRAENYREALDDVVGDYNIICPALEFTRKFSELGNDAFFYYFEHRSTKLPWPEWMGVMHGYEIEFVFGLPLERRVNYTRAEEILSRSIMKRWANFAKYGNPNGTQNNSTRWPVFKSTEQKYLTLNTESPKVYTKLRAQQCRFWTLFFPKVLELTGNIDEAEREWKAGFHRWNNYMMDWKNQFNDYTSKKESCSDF
Description: Inhibition of equine serum BuChE using butyrylthiocholine iodide as substrate preincubated with enzyme for 20 mins followed by substrate addition and measured after 20 mins by Ellman's method

[4] = molecular target: Cholinesterase (Equus caballus) (UniProt P81908); test: Pseudo-irreversible inhibition of equine serum BuChE assessed as overall carbamolyation-rate using butyrylthiocholine iodide as substrate preincubated with enzyme for 60 mins prior to substrate addition; type: cell-free
Chain of Cholinesterase (Equus caballus) (P81908 whole entry): as above

[5] = molecular target: Cholinesterase (Equus caballus) (UniProt P81908); test: Pseudo-irreversible inhibition of equine serum BuChE assessed as decarbamolyation-rate using butyrylthiocholine iodide as substrate preincubated with enzyme for 60 mins prior to substrate addition; type: cell-free
[6] = molecular target: Cholinesterase (Equus caballus) (UniProt P81908); test: Pseudo-irreversible inhibition of equine serum BuChE assessed as carbamolyation-rate using butyrylthiocholine iodide as substrate preincubated with enzyme for 60 mins prior to substrate addition; type: cell-free
Cholinesterase [7] = molecular target: T1, Cholinesterase; test: Pseudo-irreversible inhibition of equine serum BuChE assessed as binding affinity in an equilibrium state using butyrylthiocholine iodide as substrate preincubated with enzyme for 60 mins prior to substrate addition; type: cell-free
Cholinesterase [8] = molecular target: Cholinesterase (Homo sapiens, UniProt P06276)
Chain of Cholinesterase (Homo sapiens, UniProt P06276) (P06276 whole entry): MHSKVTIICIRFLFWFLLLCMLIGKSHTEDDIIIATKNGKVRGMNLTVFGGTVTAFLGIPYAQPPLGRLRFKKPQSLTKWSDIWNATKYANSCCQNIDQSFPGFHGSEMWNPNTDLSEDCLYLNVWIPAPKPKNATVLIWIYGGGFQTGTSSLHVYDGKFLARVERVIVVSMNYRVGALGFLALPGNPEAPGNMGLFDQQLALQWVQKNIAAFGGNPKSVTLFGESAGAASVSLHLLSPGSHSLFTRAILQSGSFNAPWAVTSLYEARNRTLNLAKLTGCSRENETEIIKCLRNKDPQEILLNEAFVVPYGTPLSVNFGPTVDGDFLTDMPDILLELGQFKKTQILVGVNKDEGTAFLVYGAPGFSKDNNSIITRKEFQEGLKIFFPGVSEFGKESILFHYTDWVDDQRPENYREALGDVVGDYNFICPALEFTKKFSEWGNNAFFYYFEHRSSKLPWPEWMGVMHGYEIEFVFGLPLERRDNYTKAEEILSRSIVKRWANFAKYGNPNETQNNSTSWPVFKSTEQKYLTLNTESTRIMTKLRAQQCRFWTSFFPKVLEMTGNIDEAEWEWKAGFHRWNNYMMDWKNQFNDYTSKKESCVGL
Description: Inhibition of human serum BuChE using butyrylthiocholine iodide as substrate preincubated with enzyme for 5 mins followed by substrate addition and measured after 5 mins by Ellman's method

[9] = n-Octanol/PBS partition coefficient, logP of the compound incubated for 48 hrs at pH 7.4 by shake flask method; type: physicochemical
Acetylcholinesterase [10] = molecular target: T2, Acetylcholinesterase (Homo sapiens, UniProt P22303); test: Inhibition of human AChE using acetylthiocholine iodide as substrate at 20 uM preincubated with enzyme for 5 mins followed by substrate addition and measured after 5 mins by Ellman's method; details: time 10.0 min
T2 sequence (P22303 whole entry): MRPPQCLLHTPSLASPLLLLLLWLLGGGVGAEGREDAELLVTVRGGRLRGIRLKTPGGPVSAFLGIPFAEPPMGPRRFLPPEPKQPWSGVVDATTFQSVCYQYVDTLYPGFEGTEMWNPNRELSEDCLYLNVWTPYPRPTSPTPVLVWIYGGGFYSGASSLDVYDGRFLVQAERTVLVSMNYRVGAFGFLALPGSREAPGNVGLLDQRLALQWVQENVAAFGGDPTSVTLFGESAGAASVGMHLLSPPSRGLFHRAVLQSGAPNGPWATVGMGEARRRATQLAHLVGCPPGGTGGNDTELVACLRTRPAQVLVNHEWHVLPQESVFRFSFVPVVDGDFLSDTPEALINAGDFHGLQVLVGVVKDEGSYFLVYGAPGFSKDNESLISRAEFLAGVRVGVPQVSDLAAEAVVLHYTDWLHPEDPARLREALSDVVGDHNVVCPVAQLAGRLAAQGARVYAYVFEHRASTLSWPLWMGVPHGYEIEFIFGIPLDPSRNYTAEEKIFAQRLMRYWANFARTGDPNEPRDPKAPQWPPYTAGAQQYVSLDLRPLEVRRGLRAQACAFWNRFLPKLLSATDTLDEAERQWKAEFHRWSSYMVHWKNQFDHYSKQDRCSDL

[11] = Permeability of the compound at 100 ug/ml incubated for 18 hrs by PAMPA; type: ADME; details: dose 100 µg/ml, read-out: permeability
[12] = molecular target: Acetylcholinesterase (Electrophorus electricus) (UniProt O42275); test: Inhibition of electric eel AChE using acetylthiocholine iodide as substrate at 20 uM preincubated with enzyme for 20 mins followed by substrate addition and measured after 20 mins by Ellman's method; details: time 40.0 min
Chain of Acetylcholinesterase (Electrophorus electricus) (O42275 24-633 limits assumed): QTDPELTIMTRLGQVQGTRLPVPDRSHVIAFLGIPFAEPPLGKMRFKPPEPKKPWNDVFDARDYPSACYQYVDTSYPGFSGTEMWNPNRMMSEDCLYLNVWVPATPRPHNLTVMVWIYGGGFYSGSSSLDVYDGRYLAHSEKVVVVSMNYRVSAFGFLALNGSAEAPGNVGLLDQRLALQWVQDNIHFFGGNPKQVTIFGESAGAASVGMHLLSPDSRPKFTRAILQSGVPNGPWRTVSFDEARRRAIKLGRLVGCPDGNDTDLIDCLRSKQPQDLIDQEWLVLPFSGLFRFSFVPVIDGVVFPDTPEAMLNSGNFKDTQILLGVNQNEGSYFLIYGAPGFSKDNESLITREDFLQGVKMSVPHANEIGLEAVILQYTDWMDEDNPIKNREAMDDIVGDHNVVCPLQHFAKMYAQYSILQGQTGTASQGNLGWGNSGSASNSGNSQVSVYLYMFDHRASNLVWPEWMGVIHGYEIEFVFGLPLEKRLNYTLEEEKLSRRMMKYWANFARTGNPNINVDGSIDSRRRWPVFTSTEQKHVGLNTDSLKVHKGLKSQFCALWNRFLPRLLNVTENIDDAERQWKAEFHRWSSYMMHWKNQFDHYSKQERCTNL

Acetylcholinesterase [13] = molecular target: T2, Acetylcholinesterase; test: Inhibition of human AChE using acetylthiocholine iodide as substrate preincubated with enzyme for 5 mins followed by substrate addition and measured after 5 mins by Ellman's method
[14] = Cytotoxicity against human L02 cells assessed as cell viability at 50 uM incubated for 24 hrs by MTT assay; type: cell-based; details: read-out: Activity
PC-12 = test: Neuroprotective activity against H2O2-induced cytotoxicity in rat PC-12 cells assessed as cell viability at 25 uM pretreated for 3 hrs followed by H2O2 stimulation and measured after 24 hrs by MTT assay (reference value: 38.7%); type: functional; details: time 27 hrs, read-out: Activity
[15] = Cytotoxicity against human HepG2 cells assessed as cell viability at 25 uM incubated for 24 hrs by MTT assay; type: cell-based; details: read-out: Activity

SMILES | inhibition [1] | IC50 (Acetylcholinesterase [2]) | IC50 (Cholinesterase [3]) | logD at 48 h [9] | also measured
C=C(C)[C@@H]1CCC(C)=C[C@H]1c1c(O)cc(CCCCC)cc1OC(=O)N(C)Cc1cccc(F)c1 | inactive | Not Active | 4870 nM | – | –
C=C(C)[C@@H]1CCC(C)=C[C@H]1c1c(OC(=O)N2CCOCC2)cc(CCCCC)cc1OC(=O)N1CCOCC1 | 2% | Not Active | 3360 nM | – | –
C=C(C)[C@@H]1CCC(C)=C[C@H]1c1c(O)cc(CCCCC)cc1OC(=O)N(C)Cc1cccc(Cl)c1 | inactive | Not Active | 2820 nM | – | –
C=C(C)[C@@H]1CCC(C)=C[C@H]1c1c(O)cc(CCCCC)cc1OC(=O)N1CCCC1 | 4.9% | Not Active | 390 nM | – | K [4]: 0.94 µM/min; K [5]: 5.13 10^3/min; K [6]: 0.33 min⁻¹; Kd (Cholinesterase [7]): 350 nM
C=C(C)[C@@H]1CCC(C)=C[C@H]1c1c(O)cc(CCCCC)cc1OC(=O)N(C)CC | 31.1% | – | 77 nM | 1.92 | IC50 (Cholinesterase [8]): 1510 nM; inhibition (Acetylcholinesterase [10]): 13.2%; Papp at 18 h, 100 ug/ml [11]: 18.8 ×10⁻⁶ cm/s; IC50 (Acetylcholinesterase [2]; read-out: IC50): 15000 nM
O=C1O[C@H]([C@@H](O)CO)C(O)=C1O | 86.2% | – | – | – | –
C=C(C)[C@@H]1CCC(C)=C[C@H]1c1c(O)cc(CCCCC)cc1OC(=O)N(C)C | 27.1% | – | 200 nM | – | inhibition [12]: 36.1%
C=C(C)[C@@H]1CCC(C)=C[C@H]1c1c(O)cc(CCCCC)cc1OC(=O)N(CC)CC | 40.4% | – | 370 nM | – | inhibition [12]: 28.4%
C=C(C)[C@@H]1CCC(C)=C[C@H]1c1c(O)cc(CCCCC)cc1OC(=O)N(C)Cc1ccccc1 | 21.1% | Not Active | 46 nM | 2.2 | –
C=C(C)[C@@H]1CCC(C)=C[C@H]1c1c(O)cc(CCCCC)cc1OC(=O)N(C)Cc1ccc(Br)cc1 | 41.8% | Not Active | 7.3 nM | 2.37 | IC50 (Cholinesterase [8]): 2150 nM; IC50 (Acetylcholinesterase [13]): Not Active
C=C(C)[C@@H]1CCC(C)=C[C@H]1c1c(O)cc(CCCCC)cc1O [CANNABIDIOL] | 66.7% | – | 670 nM | 1.67 | viability at 24 h, 50 µM [14]: 92.6%; Papp at 18 h, 100 ug/ml [11]: 22.7 ×10⁻⁶ cm/s; IC50 (Acetylcholinesterase [2]; read-out: IC50): 17100 nM; viability at 25 µM (PC-12): 17.9%; viability at 24 h, 25 µM [15]: 20.1%
